US9045445B2, “Glycine transporter-1 inhibitors, methods of making them, and uses thereof” (Albany Molecular Research, Inc., priority 2010, dated 2015)
Counter-ions that a name gives are not always drawn. Like-named read-outs stand apart in the source and are kept apart here.

What was measured:
[1] = target: T1, glycine transporter-2 (GlyT-2) (Homo sapiens, UniProt Q9Y345); experiment: [14C]glycine uptake assay in HEK-GlyT-2 transfected cells; format: cell-based; conditions: HEK-GlyT-2 cells
T1 construct: expressed in transfected cells
T1 sequence (Q9Y345 1-797): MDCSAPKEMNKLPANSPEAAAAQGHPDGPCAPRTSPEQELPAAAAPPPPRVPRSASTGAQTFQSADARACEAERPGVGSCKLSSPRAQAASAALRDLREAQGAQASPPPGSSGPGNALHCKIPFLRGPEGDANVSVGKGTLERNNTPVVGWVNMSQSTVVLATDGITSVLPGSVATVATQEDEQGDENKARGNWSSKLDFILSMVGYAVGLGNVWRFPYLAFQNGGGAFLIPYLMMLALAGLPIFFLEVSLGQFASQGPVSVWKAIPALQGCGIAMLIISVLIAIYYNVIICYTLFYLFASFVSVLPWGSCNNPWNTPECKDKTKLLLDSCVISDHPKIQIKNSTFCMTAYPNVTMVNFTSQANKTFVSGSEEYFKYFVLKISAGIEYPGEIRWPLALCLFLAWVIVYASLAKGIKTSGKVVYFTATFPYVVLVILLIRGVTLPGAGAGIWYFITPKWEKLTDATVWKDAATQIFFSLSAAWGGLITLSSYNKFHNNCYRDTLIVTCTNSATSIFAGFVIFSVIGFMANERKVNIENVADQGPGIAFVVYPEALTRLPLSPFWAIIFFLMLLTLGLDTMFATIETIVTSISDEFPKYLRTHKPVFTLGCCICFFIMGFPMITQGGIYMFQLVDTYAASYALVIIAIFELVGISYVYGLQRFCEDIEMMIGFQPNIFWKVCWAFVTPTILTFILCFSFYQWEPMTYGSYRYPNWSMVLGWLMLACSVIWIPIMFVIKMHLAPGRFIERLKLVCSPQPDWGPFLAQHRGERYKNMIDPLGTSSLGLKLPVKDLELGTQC

[2] = target: T2, glycine transporter-1 (GlyT-1) (Homo sapiens, UniProt P48067); experiment: [14C]glycine uptake assay in JAR cells endogenously expressing GlyT-1 (scintillation proximity); format: cell-based; conditions: JAR cells, [14C]glycine 5 μM, 3 hour incubation; read-out: GlyT-1 IC50
T2 construct: JAR cells (ATCC#HTB-144), which endogenously express GlyT-1; host or cells: JAR human choriocarcinoma cells
T2 sequence (P48067 1-706): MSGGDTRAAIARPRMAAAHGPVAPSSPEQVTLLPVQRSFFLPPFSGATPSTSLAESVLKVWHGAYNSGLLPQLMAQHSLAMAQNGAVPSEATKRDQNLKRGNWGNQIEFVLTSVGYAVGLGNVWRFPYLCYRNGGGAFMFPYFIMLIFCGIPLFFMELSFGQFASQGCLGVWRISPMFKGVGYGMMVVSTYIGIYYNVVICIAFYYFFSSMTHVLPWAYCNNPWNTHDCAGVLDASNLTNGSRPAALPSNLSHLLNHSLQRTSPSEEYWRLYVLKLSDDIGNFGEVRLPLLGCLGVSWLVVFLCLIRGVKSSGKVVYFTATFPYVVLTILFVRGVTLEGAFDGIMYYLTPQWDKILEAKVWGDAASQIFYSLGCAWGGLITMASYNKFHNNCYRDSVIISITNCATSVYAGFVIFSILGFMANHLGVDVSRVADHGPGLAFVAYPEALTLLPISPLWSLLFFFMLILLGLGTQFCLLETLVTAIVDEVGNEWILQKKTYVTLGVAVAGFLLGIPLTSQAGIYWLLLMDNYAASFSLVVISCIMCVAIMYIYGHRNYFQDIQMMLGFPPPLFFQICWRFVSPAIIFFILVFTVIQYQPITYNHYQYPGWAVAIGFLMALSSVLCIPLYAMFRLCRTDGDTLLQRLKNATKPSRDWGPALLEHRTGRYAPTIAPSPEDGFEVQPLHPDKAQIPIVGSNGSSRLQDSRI
In short: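 Human choriocarcinoma JAR cells (endogenous GlyT-1) attached overnight, then pre-incubated 10 min at room temperature with compound in pH 7.4 Hepes uptake buffer containing 5 mM alanine and 0.75% DMSO. Uptake of 5 μM [14C]glycine over 3 h at 37 °C read by scintillation proximity; IC50 from four-parameter fit of nine-point curves.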

[3] = test system: cerebrospinal fluid (CSF) glycine levels; experiment: CSF-glycine assay after oral administration; format: in vivo; conditions: rats; for change in vivo at 10 mg/kg / change in vivo at 30 mg/kg / change in vivo at 100 mg/kg / change in vivo at 3 mg/kg / change in vivo at 75 mg/kg: Rattus norvegicus, po, read-out: % CSF Glycine Increase versus Vehicle Control
Protocol: This study measured cerebrospinal fluid (CSF) glycine levels after oral administration of test compound. […] After the specified pretreatment time, the rats were euthanized by CO2 asphyxiation and a hypodermic needle was inserted into the cisterna magna to withdraw 50-100 μl of CSF. The CSF was diluted with deuterated-glycine as an internal standard glycine was quantified by LC/MS/MS.

[4] = 0.5 h, dose 10 mg/kg, pretreatment 30 mins
[5] = 0.5 h, dose 30 mg/kg, pretreatment 30 mins
[6] = 2 h, dose 10 mg/kg, pretreatment 120 mins
[7] = 2 h, dose 30 mg/kg, pretreatment 120 mins
[8] = 6 h, dose 10 mg/kg, pretreatment 360 mins
[9] = 6 h, dose 30 mg/kg, pretreatment 360 mins

Row | Compound | IC50 [1] [nM] | IC50 [2] [nM] | change in vivo at 10 mg/kg [3, 6] [%] | change in vivo at 30 mg/kg [3, 7] [%] | further results
1 | Cn1cc(S(=O)(=O)N2CCN(C3(CNC(=O)c4ccc(C(F)(F)F)cc4Cl)CCC(F)(F)CC3)CC2)nn1 [compound 193, 2-Chloro-N-((4,4-difluoro-1-(4-(1-methyl-1H-1,2,3-triazol-4-ylsulfonyl)piperazin-1-yl)cyclohexyl)methyl)-4-(trifluoromethyl)benzamide Hydrochloride] | > 75000 | 1 | 282 | 279 | change in vivo at 10 mg/kg [3, 8]: 303%; change in vivo at 30 mg/kg [3, 9]: 355%
2 | N-((4,4-Difluoro-1-(4- (propylsulfonyl)piperazin- 1-yl)cyclohexyl)methyl)- 2,4-bis(trifluoromethyl) benzamide Hydrochloride [compound 246] | > 75000 | 7 | – | – | % CSF Glycine Increase versus Vehicle Control ([3]; dose 10 mg/kg, pretreatment 120 mins): 191%; % CSF Glycine Increase versus Vehicle Control ([3]; dose 10 mg/kg, pretreatment 360 mins): 166%; % CSF Glycine Increase versus Vehicle Control ([3]; dose 30 mg/kg, pretreatment 120 mins): 205%; % CSF Glycine Increase versus Vehicle Control ([3]; dose 30 mg/kg, pretreatment 360 mins): 244%
3 | CC(NC(=O)c1ccc(C(F)(F)F)cc1Cl)C1(N2CCN(S(=O)(=O)c3cn(C)nn3)CC2)CCC(F)(F)CC1 (stereo not drawn) [compound 224, 2-Chloro-N-(1-(4,4-difluoro-1-(4-(1-methyl-1H-1,2,3-triazol-4-ylsulfonyl)piperazin-1-yl)cyclohexyl)ethyl)-4-(trifluoromethyl)benzamide Hydrochloride] | > 75000 | 1 | 347 | – | change in vivo at 3 mg/kg ([3]; 2 h, pretreatment 120 mins): 186%
4 | CCCS(=O)(=O)N1CCN(C2(CNC(=O)c3ccc(C(F)(F)F)cc3C(F)(F)F)CCOCC2)CC1 [compound 267, N-((4-(4-(propylsulfonyl)piperazin-1-yl)tetrahydro-2H-pyran-4-yl)methyl)-2,4-bis(trifluoromethyl) benzamide Hydrochloride] | – | 46 | 138 | 229 | change in vivo at 10 mg/kg [3, 8]: 129%; change in vivo at 30 mg/kg [3, 9]: 190%
5 | CCCS(=O)(=O)N1CCN(C2(CNC(=O)c3c(Cl)cc(Cl)cc3Cl)CCC(F)(F)CC2)CC1 [compound 260, 2,4,6-Trichloro-N-((4,4-difluoro-1-(4-(propylsulfonyl)piperazin-1-yl)cyclohexyl)methyl) benzamide Hydrochloride] | > 75000 | 17 | – | – | –
6 | CCCS(=O)(=O)N1CCN(C2(CNC(=O)c3c(N)cccc3Cl)CCCCCC2)CC1 [compound 56, 2-Amino-6-chloro-N-((1-(4-(propylsulfonyl)piperazin-1-yl)cycloheptyl)methyl) benzamide Hydrochloride] | 39000 | 6 | – | – | –
7 | CCCS(=O)(=O)N1CCN(C2(CNC(=O)c3c(F)cccc3F)CCCCCC2)CC1 [compound 66, 2,6-Difluoro-N-((1-(4-(propylsulfonyl)piperazin-1-yl)cycloheptyl)methyl) benzamide Hydrochloride] | > 45000 | 29 | – | – | –

The next lines start with results.

Row | IC50 [1] [nM] | IC50 [2] [nM] | Compound | change in vivo at 10 mg/kg [3, 6] [%] | change in vivo at 30 mg/kg [3, 7] [%] | further results
8 | 74900 | 18 | Cn1cnc(S(=O)(=O)N2CCN(C3(CNC(=O)c4c(F)cccc4F)CCC(F)(F)CC3)CC2)c1 [compound 163, N-((4,4-Difluoro-1-(4-(1-methyl-1H-imidazol-4-ylsulfonyl)piperazin-1-yl)cyclohexyl)methyl)-2,6-difluorobenzamide Hydrochloride] | 132 | 215 | change in vivo at 10 mg/kg [3, 4]: 123%; change in vivo at 30 mg/kg [3, 5]: 202%; change in vivo at 100 mg/kg ([3]; 0.5 h, pretreatment 30 mins): 280%; change in vivo at 100 mg/kg ([3]; 2 h, pretreatment 120 mins): 221%
9 | > 75000 | 3 | CC(NC(=O)c1ccc(F)cc1Cl)C1(N2CCN(S(=O)(=O)c3cn(C)nn3)CC2)CCC(F)(F)CC1 (stereo not drawn) [compound 219, 2-Chloro-N-(1-(4,4-difluoro-1-(4-(1-methyl-1H-1,2,3-triazol-4-ylsulfonyl)piperazin-1-yl)cyclohexyl)ethyl)-4-fluorobenzamide Hydrochloride] | 310 | – | change in vivo at 3 mg/kg ([3]; 2 h, pretreatment 120 mins): 181%
10 | > 75000 | 1 | Cn1cc(S(=O)(=O)N2CCN(C3(CNC(=O)c4ccc(C(F)(F)F)cc4C(F)(F)F)CCC(F)(F)CC3)CC2)nn1 [compound 221, N-((4,4-Difluoro-1-(4-(1-methyl-1H-1,2,3-triazol-4-ylsulfonyl)piperazin-1-yl)cyclohexyl)methyl)-2,4-bis(trifluoromethyl) benzamide Hydrochloride] | 226 | – | change in vivo at 10 mg/kg [3, 8]: 241%
11 | > 75000 | 5 | Cn1cc(S(=O)(=O)N2CCN(C3(CNC(=O)c4c(F)cccc4F)CCC(F)(F)CC3)CC2)nn1 [compound 189, N-((4,4-Difluoro-1-(4-(1-melhyl-1H-1,2,3-triazol-4-ylsulfonyl)piperazin-1-yl)cyclohexyl)methyl)-2,6-difluorobenzamide Hydrochloride] | 203 | 270 | change in vivo at 10 mg/kg [3, 4]: 158%; change in vivo at 30 mg/kg [3, 5]: 219%; change in vivo at 100 mg/kg ([3]; 0.5 h, pretreatment 30 mins): 281%; change in vivo at 100 mg/kg ([3]; 2 h, pretreatment 120 mins): 288%
12 | > 75000 | 67 | CCCS(=O)(=O)N1CCN(C2(CNC(=O)c3c(F)cccc3F)CCC(F)(F)CC2)CC1 [compound 130, N-((4,4-Difluoro-1-(4-(propylsulfonyl)piperazin-1-yl)cyclohexyl)methyl)-2,6-difluorobenzamide Hydrochloride] | 123 | 125 | change in vivo at 10 mg/kg [3, 4]: 148%; change in vivo at 30 mg/kg [3, 5]: 185%; change in vivo at 75 mg/kg ([3]; 0.5 h, pretreatment 30 mins): 201%; change in vivo at 75 mg/kg ([3]; 2 h, pretreatment 120 mins): 201%
13 | > 75000 | 1270 | CCCS(=O)(=O)N1CCN(C2(CNC(=O)Cc3ccc(Cl)cc3)CCCCC2)CC1 [compound 13, 2-(4-Chlorophenyl)-N-((1-(4-(propylsulfonyl)piperazin-1-yl)cyclohexyl)methyl) acetamide Hydrochloride] | – | – | –
14 | > 75000 | 36 | CCCS(=O)(=O)N1CCN(C2(CNC(=O)c3ccccc3Cl)CCCCC2)CC1 [compound 8, 2-Chloro-N-((1-(4-(propylsulfonyl)piperazin-1-yl)cyclohexyl)methyl) benzamide Hydrochloride] | – | – | –
